Data from the Kinase Knowledgebase extract (Sharma et al. 2016).

Legend:
[1] = molecular target: PIK3CA (human) (UniProt P42336); assay: Assessment of PIK3CA Kinase Activity Using One Step Solid Phase Assay
[2] = molecular target: PIK3CA (human) (UniProt P42336); assay: Assessment of PIK3CA Kinase Activity Using Homogenous Solution Phase Assay

Sequence of PIK3CA (human) (P42336 whole entry, looked up): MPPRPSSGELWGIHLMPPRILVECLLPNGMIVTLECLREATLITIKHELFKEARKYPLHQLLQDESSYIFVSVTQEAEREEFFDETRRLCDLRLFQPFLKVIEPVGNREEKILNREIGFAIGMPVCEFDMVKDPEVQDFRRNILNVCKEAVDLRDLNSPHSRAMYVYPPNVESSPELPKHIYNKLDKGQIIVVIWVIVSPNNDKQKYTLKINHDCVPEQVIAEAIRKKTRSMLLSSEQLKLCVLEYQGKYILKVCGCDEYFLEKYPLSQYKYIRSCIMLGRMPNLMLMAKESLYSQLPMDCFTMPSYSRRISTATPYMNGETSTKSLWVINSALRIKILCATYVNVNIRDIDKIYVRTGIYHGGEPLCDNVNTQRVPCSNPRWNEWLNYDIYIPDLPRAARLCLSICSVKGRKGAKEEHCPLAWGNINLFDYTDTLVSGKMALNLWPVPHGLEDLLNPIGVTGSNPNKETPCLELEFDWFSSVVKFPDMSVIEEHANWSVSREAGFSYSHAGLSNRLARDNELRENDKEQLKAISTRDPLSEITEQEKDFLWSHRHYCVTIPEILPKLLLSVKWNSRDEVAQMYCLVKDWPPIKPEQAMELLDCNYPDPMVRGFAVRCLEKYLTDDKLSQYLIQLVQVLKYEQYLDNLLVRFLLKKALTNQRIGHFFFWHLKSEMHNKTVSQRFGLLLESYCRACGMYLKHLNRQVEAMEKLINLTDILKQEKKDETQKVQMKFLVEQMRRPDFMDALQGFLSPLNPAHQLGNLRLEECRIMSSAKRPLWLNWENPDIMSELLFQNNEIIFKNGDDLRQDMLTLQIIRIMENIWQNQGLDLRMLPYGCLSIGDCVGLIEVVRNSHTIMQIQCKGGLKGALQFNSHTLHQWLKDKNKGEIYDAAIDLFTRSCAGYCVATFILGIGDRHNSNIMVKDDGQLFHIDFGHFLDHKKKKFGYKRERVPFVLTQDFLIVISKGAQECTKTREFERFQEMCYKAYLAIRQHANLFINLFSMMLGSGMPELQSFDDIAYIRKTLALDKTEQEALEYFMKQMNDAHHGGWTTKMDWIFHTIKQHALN

Row | IC50 [1] | IC50 [2] | SMILES
1 | < 20 µM | – | Cc1ccc(CN(Cc2cccnc2)c2cc(-c3cccc(O)c3)nc(N3CCOCC3)n2)cc1
2 | – | < 20 µM | Oc1cccc(-c2cc(Nc3ccc4[nH]ncc4c3)nc(N3CCCNCC3)n2)c1
3 | < 20 µM | – | Oc1cccc(-c2cc(Nc3cc(-c4ccccc4)ccc3O)nc(N3CCOCC3)n2)c1
4 | < 20 µM | < 20 µM | Oc1ccc(F)c(-c2cc(Nc3cccnc3)nc(N3CCOCC3)n2)c1
5 | < 20 µM | – | COc1ccccc1Nc1cc(-c2cccc(O)c2)nc(N2CCOCC2)n1
6 | < 20 µM | – | CCCCOc1ccc(Nc2cc(-c3cccc(O)c3)nc(N3CCOCC3)n2)cc1
7 | < 20 µM | < 20 µM | COc1cccc(N2CCN(c3cc(-c4cccc(O)c4)nc(N4CCOCC4)n3)CC2)c1
8 | – | < 20 µM | Oc1cccc(-c2cc(Nc3cccc4cnccc34)nc(N3CCOCC3)n2)c1
9 | < 20 µM | < 20 µM | c1cc(OCCN2CCCCC2)cc(-c2cc(Nc3ccc4[nH]ncc4c3)nc(N3CCOCC3)n2)c1
10 | – | < 20 µM | O=[N+]([O-])c1cc(Nc2cc(-c3cccc(O)c3)nc(N3CCOCC3)n2)ccc1O
11 | – | < 20 µM | Oc1cccc(-c2cc(N(Cc3ccccc3)Cc3nccs3)nc(N3CCOCC3)n2)c1
12 | < 20 µM | – | Oc1cccc(-c2cc(Nc3ccc(Oc4ccccc4)cc3)nc(N3CCOCC3)n2)c1
13 | – | < 20 µM | Oc1cccc(-c2cc(Nc3ccc4c(c3)CCC4)nc(N3CCOCC3)n2)c1
14 | < 20 µM | – | NC1CCCC(Nc2cc(-c3cccc(O)c3)nc(N3CCOCC3)n2)C1 (stereo unspecified)
15 | < 20 µM | < 20 µM | Oc1cccc(-c2cc(Nc3ccc4nn[nH]c4c3)nc(N3CCOCC3)n2)c1
16 | < 20 µM | – | Oc1cccc(Nc2cc(-c3cccc(O)c3)nc(N3CCOCC3)n2)c1
17 | < 20 µM | < 20 µM | CC(C)(C)C(=O)Oc1cccc(-c2cc(Nc3cccnc3)nc(N3CCOCC3)n2)c1
18 | < 20 µM | < 20 µM | Oc1cccc(-c2cc(NCc3ccccn3)nc(N3CCOCC3)n2)c1
19 | < 20 µM | < 20 µM | Oc1cc(-c2cc(Nc3cccnc3)nc(N3CCOCC3)n2)ccc1Cl
20 | – | < 20 µM | Oc1cccc(-c2cc(Nc3ccc4c(c3)OCCO4)nc(N3CCOCC3)n2)c1
21 | < 20 µM | < 20 µM | Oc1cccc(-c2cc(N3CCN(c4ccccn4)CC3)nc(N3CCOCC3)n2)c1
22 | < 20 µM | < 20 µM | C[C@@H](Nc1cc(-c2cccc(O)c2)nc(N2CCOCC2)n1)c1ccccc1
23 | < 20 µM | < 20 µM | C[C@@H]1COC[C@H](C)N1c1cc(-c2cccc(O)c2)nc(N2CCOCC2)n1
24 | < 20 µM | < 20 µM | CCCC(=O)Oc1cccc(-c2cc(Nc3cccnc3)nc(N3CCOCC3)n2)c1
25 | < 20 µM | < 20 µM | CCC(CO)(CO)Nc1cc(-c2cccc(O)c2)nc(N2CCOCC2)n1

Row | IC50 [1] | IC50 [2] | SMILES
26 | < 20 µM | – | COc1cccc(Nc2cc(-c3cccc(O)c3)nc(N3CCOCC3)n2)c1
27 | < 20 µM | – | Oc1ccc(Nc2cc(-c3cccc(O)c3)nc(N3CCOCC3)n2)cc1
28 | < 20 µM | – | Oc1cccc(-c2cc(Nc3ccc4c(c3)OCCCO4)nc(N3CCOCC3)n2)c1
29 | < 20 µM | < 20 µM | Nc1cccc(-c2cc(Nc3cccnc3)nc(N3CCOCC3)n2)c1
30 | < 20 µM | < 20 µM | Oc1cccc(-c2cc(Nc3cccnc3)nc(N3CCOCC3)n2)c1F
31 | – | < 20 µM | Oc1cccc(-c2cc(Nc3ccc4c(c3)NCC4)nc(N3CCOCC3)n2)c1
32 | – | < 20 µM | Oc1cccc(-c2cc(Nc3ccc4nc[nH]c4c3)nc(N3CCOCC3)n2)c1
33 | < 20 µM | < 20 µM | COCCNc1cc(-c2cccc(O)c2)nc(N2CCOCC2)n1
34 | – | < 20 µM | Oc1cccc(-c2cc(Nc3ccccn3)nc(N3CCOCC3)n2)c1
35 | < 20 µM | – | COc1cccc(-c2nc(N3CCOCC3)nc(Nc3cccnc3)c2C(=O)O)c1
36 | – | < 20 µM | Fc1cccc(-c2cc(Nc3cccnc3)nc(N3CCOCC3)n2)c1
37 | < 20 µM | – | Fc1ccccc1-c1cc(Nc2ccc3[nH]ncc3c2)nc(N2CCOCC2)n1
38 | < 20 µM | < 20 µM | CC(C)C(N)C(=O)Oc1cccc(-c2cc(Nc3cccnc3)nc(N3CCOCC3)n2)c1 (stereo unspecified)
39 | – | < 20 µM | CC(=O)N1CCc2ccc(Nc3cc(-c4cccc(O)c4)nc(N4CCOCC4)n3)cc21
40 | < 20 µM | – | N[C@@H]1CCCC[C@H]1Nc1cc(-c2cccc(O)c2)nc(N2CCOCC2)n1
41 | < 20 µM | – | Oc1cccc(-c2cc(NCCCn3ccnc3)nc(N3CCOCC3)n2)c1
42 | – | < 20 µM | FC(F)(F)c1cccc(-c2cc(Nc3cccnc3)nc(N3CCOCC3)n2)c1
43 | – | < 20 µM | Oc1cccc(-c2cc(Nc3ccc4c(c3)Cc3ccccc3-4)nc(N3CCOCC3)n2)c1
44 | < 20 µM | – | Oc1cccc(-c2cc(Nc3cc(Cl)ccc3O)nc(N3CCOCC3)n2)c1
45 | < 20 µM | – | CN1CCCN(c2cc(-c3cccc(O)c3)nc(N3CCOCC3)n2)CC1
46 | < 20 µM | – | COc1cc(Nc2ccccc2)ccc1Nc1cc(-c2cccc(O)c2)nc(N2CCOCC2)n1
47 | < 20 µM | – | Oc1cccc(-c2cc(N3CCN(Cc4ccc5c(c4)OCO5)CC3)nc(N3CCOCC3)n2)c1
48 | < 20 µM | – | Oc1cccc(-c2cc(NCCc3cccnc3)nc(N3CCOCC3)n2)c1
49 | < 20 µM | – | CCOc1ccc(OCC)c(Nc2cc(-c3cccc(O)c3)nc(N3CCOCC3)n2)c1
50 | – | < 20 µM | Oc1cccc(-c2cc(Nc3ccc(O)c(Cl)c3)nc(N3CCOCC3)n2)c1

Row | IC50 [1] | IC50 [2] | SMILES
51 | < 20 µM | – | CCOc1ccc(Nc2cc(-c3cccc(O)c3)nc(N3CCOCC3)n2)cc1
52 | < 20 µM | – | CCn1c(C)nc2cc(Nc3cc(-c4cccc(O)c4)nc(N4CCOCC4)n3)ccc21
53 | < 20 µM | < 20 µM | CC(=O)Oc1cccc(-c2cc(Nc3cccnc3)nc(N3CCOCC3)n2)c1
54 | – | < 20 µM | COc1ccc(Nc2cc(-c3cccc(O)c3)nc(N3CCOCC3)n2)cc1F
55 | < 20 µM | – | COc1c(Nc2cc(-c3cccc(O)c3)nc(N3CCOCC3)n2)ccc2c1oc1ccccc12
56 | < 20 µM | < 20 µM | O=[N+]([O-])c1ccc(N2CCN(c3cc(-c4cccc(O)c4)nc(N4CCOCC4)n3)CC2)cc1
57 | < 20 µM | < 20 µM | COc1cccc(-c2cc(N3CCOCC3)nc(N3CCOCC3)n2)c1
58 | – | < 20 µM | Oc1cccc(-c2cc(Nc3ccc4[nH]ncc4c3)nc(N3CCCCCC3)n2)c1
59 | – | < 20 µM | Cc1ccc(O)cc1-c1cc(Nc2cccnc2)nc(N2CCOCC2)n1
60 | – | < 20 µM | COc1ccc(Nc2cc(-c3cccc(O)c3)nc(N3CCOCC3)n2)cc1Cl
61 | < 20 µM | – | Cc1ccc(CN(Cc2ccccn2)c2cc(-c3cccc(O)c3)nc(N3CCOCC3)n2)cc1
62 | – | < 20 µM | Oc1cccc(-c2cc(Nc3ccc4cn[nH]c4c3)nc(N3CCOCC3)n2)c1
63 | < 20 µM | – | Oc1cccc(-c2cc(N3CCC(O)CC3)nc(N3CCOCC3)n2)c1
64 | < 20 µM | < 20 µM | Oc1cccc(-c2cc(NCc3ccncc3)nc(N3CCOCC3)n2)c1
65 | – | < 20 µM | Oc1cccc(-c2cc(Nc3cnccn3)nc(N3CCOCC3)n2)c1
66 | < 20 µM | – | Oc1cccc(-c2cc(NCCc3ccccn3)nc(N3CCOCC3)n2)c1
67 | < 20 µM | < 20 µM | CC(C)C(=O)Oc1cccc(-c2cc(Nc3cccnc3)nc(N3CCOCC3)n2)c1
68 | < 20 µM | – | Oc1cccc(-c2cc(Nc3cccc(Oc4ccccc4)c3)nc(N3CCOCC3)n2)c1
69 | < 20 µM | < 20 µM | CS(=O)(=O)Nc1cccc(-c2cc(Nc3cccnc3)nc(N3CCOCC3)n2)c1
70 | < 20 µM | – | Oc1cccc(-c2cc(N3CCN(CCc4ccccc4)CC3)nc(N3CCOCC3)n2)c1
71 | – | < 20 µM | COc1ccc(Nc2cc(-c3cccc(O)c3)nc(N3CCOCC3)n2)cc1O
72 | – | < 20 µM | COc1cc(Nc2cc(-c3cccc(O)c3)nc(N3CCOCC3)n2)cc(OC)c1OC
73 | < 20 µM | – | COc1ccc(Nc2cc(-c3cccc(O)c3)nc(N3CCOCC3)n2)cc1OC1CCCC1
74 | < 20 µM | – | CCOc1ccccc1Nc1cc(-c2cccc(O)c2)nc(N2CCOCC2)n1
75 | – | < 20 µM | Nc1cc(-c2cccc(O)c2)nc(N2CCOCC2)n1

Row | IC50 [1] | IC50 [2] | SMILES
76 | < 20 µM | < 20 µM | Oc1cccc(-c2cc(NCCc3ccncc3)nc(N3CCOCC3)n2)c1
77 | < 20 µM | – | COc1cccc(C)c1Nc1cc(-c2cccc(O)c2)nc(N2CCOCC2)n1
78 | < 20 µM | – | COc1cccc(Nc2cc(-c3cccc(O)c3)nc(N3CCOCC3)n2)c1OC
79 | – | < 20 µM | OCC1CCCN1c1cc(-c2cccc(O)c2)nc(N2CCOCC2)n1 (stereo unspecified)
80 | – | < 20 µM | O=c1[nH]c2ccc(Nc3cc(-c4cccc(O)c4)nc(N4CCOCC4)n3)cc2[nH]1
81 | – | < 20 µM | Oc1cccc(-c2cc(Nc3ccc4ncccc4c3)nc(N3CCOCC3)n2)c1
82 | < 20 µM | < 20 µM | CCOc1ccc(NC(C)=O)cc1Nc1cc(-c2cccc(O)c2)nc(N2CCOCC2)n1
83 | < 20 µM | – | Oc1cccc(-c2cc(Nc3cccc(OCc4ccccc4)c3)nc(N3CCOCC3)n2)c1
84 | < 20 µM | < 20 µM | COC(=O)Oc1cccc(-c2cc(Nc3cccnc3)nc(N3CCOCC3)n2)c1
85 | – | < 20 µM | COc1cccc(-c2cc(Nc3cccnc3)nc(N3CCOCC3)n2)c1
86 | < 20 µM | < 20 µM | Oc1cccc(-c2cc(Nc3ccc(O)nc3)nc(N3CCOCC3)n2)c1
87 | < 20 µM | – | COc1ccc(Nc2cc(-c3ccccc3)nc(N3CCOCC3)n2)cc1O
88 | – | < 20 µM | COc1ccc(Nc2cc(-c3cccc(O)c3)nc(N3CCOCC3)n2)cc1OC
89 | < 20 µM | < 20 µM | Oc1cccc(-c2cc(Nc3ncccn3)nc(N3CCOCC3)n2)c1
90 | < 20 µM | – | COc1ccc(OC)c(Nc2cc(-c3cccc(O)c3)nc(N3CCOCC3)n2)c1
91 | < 20 µM | < 20 µM | Oc1cccc(-c2cc(N3CCCNCC3)nc(N3CCOCC3)n2)c1
92 | < 20 µM | – | Oc1cccc(-c2cc(N(Cc3ccccc3)Cc3ccccc3)nc(N3CCOCC3)n2)c1
93 | – | < 20 µM | Cc1ccc(Nc2cc(-c3cccc(O)c3)nc(N3CCOCC3)n2)cc1C
94 | – | < 20 µM | Oc1cccc(-c2cc(Nc3ccc4c(c3)OCO4)nc(N3CCOCC3)n2)c1
95 | < 20 µM | – | COc1ccc(Nc2cc(-c3cccc(O)c3)nc(N3CCOCC3)n2)c(OC)c1
96 | < 20 µM | – | Oc1cccc(-c2cc(N3CCN(c4cccc(Cl)c4)CC3)nc(N3CCOCC3)n2)c1
97 | < 20 µM | – | Oc1cccc(-c2cc(Nc3ccccc3O)nc(N3CCOCC3)n2)c1
98 | < 20 µM | – | O=C(CN1CCN(c2cc(-c3cccc(O)c3)nc(N3CCOCC3)n2)CC1)N1CCOCC1
